Earlier results, collected in patent publication US8192775B2, “Crystallization of polyol compositions, crystalline polyol composition product and use thereof” (Danisco Sweeteners Oy, priority 2002, dated 2012).

Conditions: water at 20° C.

Row | solubility in water | Structure (SMILES)
1 | 62 % (w/w) | OC[C@@H](O)[C@@H](O[C@H]1O[C@H](CO)[C@@H](O)[C@H](O)[C@H]1O)[C@H](O)[C@@H](O)CO [Maltitol]
2 | 63 (w/w) | OC[C@@H](O)[C@H](O)[C@@H](O)CO [Xylitol]
